# Measurements reported in paper PMC7413254 (Nature Communications, 2020).
# Like-named read-outs stand apart in the source and are kept apart here.
# What was measured:
# PfCRT^Dd2 [1] = target: T1, PfCRT^Dd2 (Plasmodium falciparum, UniProt Q9N623, A220S/I356T/K76T/M74I/N326S/N75E/Q271E/R371I); assay: [3H]CQ uptake into Xenopus oocytes, cis-inhibition by unlabelled solute; type: cell-based
# How it was run: (§1)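 Each treatment used ten oocytes, repeated in at least four experiments on different days with oocytes from different frogs. Conditions: ND96 pH 5.5, 27.5 °C, 1.5 h; read-out by scintillation counting.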
# PfCRT^Ecu1110 [2] = target: T2, PfCRT^Ecu1110 (Plasmodium falciparum, UniProt Q9N623, A220S/I356L/K76T/N326D); assay: as above; type: cell-based
# T2 sequence (Q9N623 whole entry A220S/I356L/K76T/N326D): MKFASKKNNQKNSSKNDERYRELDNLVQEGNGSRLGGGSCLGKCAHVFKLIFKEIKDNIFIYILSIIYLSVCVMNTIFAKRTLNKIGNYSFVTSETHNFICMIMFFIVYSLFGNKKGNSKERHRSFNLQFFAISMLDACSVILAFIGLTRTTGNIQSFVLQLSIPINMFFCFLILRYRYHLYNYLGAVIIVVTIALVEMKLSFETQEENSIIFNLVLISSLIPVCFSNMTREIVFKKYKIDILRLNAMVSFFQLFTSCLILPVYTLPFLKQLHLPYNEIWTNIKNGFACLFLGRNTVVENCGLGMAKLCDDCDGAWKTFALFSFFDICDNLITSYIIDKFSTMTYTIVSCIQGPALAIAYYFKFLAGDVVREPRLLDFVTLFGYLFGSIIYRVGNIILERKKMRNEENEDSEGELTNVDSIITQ
# How it was run: as §1
# PfCRT [3] = assay: Test of solutes as potential co-substrates for influx of VF-6 via PfCRT into the oocyte; type: cell-based, Plasmodium falciparum; set-up: key: X: Compounds that have been tested as potential co-substrates but are not required for influx of VF-6 via PfCRT into the oocyte; conditions: X = tested
# PfCRT^3D7 [4] = target: T3, PfCRT^3D7 (Plasmodium falciparum, UniProt Q8IBZ9); assay: cell-based; type: cell-based; conditions: total [3H]CQ transport; for inhibition at 500 µM: [test solute] = 0.5 mM; for inhibition at 1000 µM: [test solute] = 1 mM; for inhibition at 2000 µM: [test solute] = 2 mM
# T3 sequence (Q8IBZ9 59-398): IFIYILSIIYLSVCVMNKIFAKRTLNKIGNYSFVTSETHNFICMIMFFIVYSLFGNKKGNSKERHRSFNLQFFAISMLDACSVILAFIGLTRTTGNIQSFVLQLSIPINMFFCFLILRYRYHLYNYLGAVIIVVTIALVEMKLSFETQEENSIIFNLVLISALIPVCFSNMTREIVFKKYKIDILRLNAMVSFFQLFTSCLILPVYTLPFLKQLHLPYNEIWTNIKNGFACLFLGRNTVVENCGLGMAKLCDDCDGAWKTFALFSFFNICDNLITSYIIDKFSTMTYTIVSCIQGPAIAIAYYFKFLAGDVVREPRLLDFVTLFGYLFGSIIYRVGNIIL
# How it was run: as §1
# non-expressing oocytes [5] = assay: cells; type: cell-based, Xenopus laevis; conditions: Xenopus laevis, total [3H]CQ transport; for inhibition at 500 µM: [test solute] = 0.5 mM; for inhibition at 1000 µM: [test solute] = 1 mM; for inhibition at 2000 µM: [test solute] = 2 mM
# How it was run: as §1
# PfCRT^Dd2 [6] = target: T1, PfCRT^Dd2; assay: cell-based; type: cell-based; conditions: […]; for activity at 45000 µM: [test solute]i = 45 mM (30 mM for some solutes due to solubility)
# How it was run: (§2)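 Oocytes (ten per treatment, ≥4 independent frogs/days) were preloaded by injecting VF-6 in 25 nL ND96 at pH 5.0, 5.5, 6.0 or 7.0, or Na^+-free choline buffer, then uptake run 1.5 h, 27.5 °C, ND96 pH 5.5 by default. Internal concentrations assumed ~400 nL oocyte volume.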
# PfCRT^Ecu1110 [7] = target: T2, PfCRT^Ecu1110; assay: cell-based; type: cell-based; conditions: […]
# How it was run: as §2
# PfCRT^3D7 [8] = target: T3, PfCRT^3D7; assay: cell-based; type: cell-based
# How it was run: as §2
# PfNT1 = target: T4, PfNT1 (Plasmodium falciparum, UniProt Q8IDM6); assay: cell-based; type: cell-based; conditions: […], read-out: Uptake of [3H]CQ (% PfCRTDd2 control), trans-stimulation, PfNT1; SEM
# T4 construct: expressed in transfected cells; host or cells: Xenopus laevis oocytes (stage V-VI), cRNA-injected
# T4 sequence (Q8IDM6 whole entry): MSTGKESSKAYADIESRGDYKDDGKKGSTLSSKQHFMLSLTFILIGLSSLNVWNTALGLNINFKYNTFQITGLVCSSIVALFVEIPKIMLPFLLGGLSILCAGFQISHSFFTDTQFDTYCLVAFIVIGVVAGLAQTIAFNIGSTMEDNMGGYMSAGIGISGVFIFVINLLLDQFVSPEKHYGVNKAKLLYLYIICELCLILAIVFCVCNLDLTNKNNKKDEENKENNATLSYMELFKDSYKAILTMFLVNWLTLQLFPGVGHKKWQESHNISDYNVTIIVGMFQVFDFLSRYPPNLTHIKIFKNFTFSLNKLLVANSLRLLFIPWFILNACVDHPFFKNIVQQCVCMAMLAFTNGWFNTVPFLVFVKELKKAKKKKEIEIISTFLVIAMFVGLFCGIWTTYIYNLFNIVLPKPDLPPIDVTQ
# How it was run: as §2
# non-expressing oocytes [9] = type: cell-based, Xenopus laevis; conditions: total [3H]CQ transport; for Uptake of [3H]CQ (% non-expressing oocyte control), trans-stimulation: non-expressing oocytes, normalised to the oocyte type control; for Uptake of [3H]CQ (% PfCRTDd2 control), trans-stimulation, non-expressing oocytes: mean ± SEM, SEM
# How it was run: as §2
# PfCRT [10] = assay: Potential co-substrates tested for influx of VF-6 via PfCRT into the oocyte; type: cell-based, Plasmodium falciparum; set-up: key: X: Compounds that have been tested as potential co-substrates but are not required for influx of VF-6 via PfCRT into the oocyte
# [11] = read-out: PfCRT-mediated [3H]CQ transport, cis-inhibition (% PfCRTDd2 control)
# [12] = read-out: Uptake of [3H]CQ (% PfCRTDd2 control), cis-inhibition
# [13] = read-out: Uptake of [3H]CQ (% PfCRTDd2 control), cis-inhibition, PfCRTDd2, SEM
# [14] = read-out: [3H]CQ transport (% PfCRTDd2 control), cis-inhibition, PfCRTDd2, SEM
# [15] = read-out: PfCRT-mediated [3H]CQ transport, cis-inhibition (% PfCRTEcu1110 control)
# [16] = read-out: Uptake of [3H]CQ (% PfCRTDd2 control), cis-inhibition, PfCRTEcu1110, SEM
# [17] = read-out: Uptake of [3H]CQ (% PfCRTEcu1110 control), cis-inhibition
# [18] = read-out: [3H]CQ transport (% PfCRTEcu1110 control), cis-inhibition, PfCRTEcu1110, SEM
# [19] = PfCRT3D7 oocytes, normalised to the oocyte type control, read-out: Uptake of [3H]CQ (% PfCRT3D7 control), cis-inhibition
# [20] = mean ± SEM, SEM, read-out: Uptake of [3H]CQ (% PfCRTDd2 control), cis-inhibition, PfCRT3D7
# [21] = Oocyte, mean ± SEM, SEM, read-out: Uptake of [3H]CQ (% PfCRTDd2 control), cis-inhibition, non-expressing oocytes
# [22] = non-expressing oocytes, normalised to the oocyte type control, read-out: Uptake of [3H]CQ (% non-expressing oocyte control), cis-inhibition
# T1 sequence (Q9N623 whole entry A220S/I356T/K76T/M74I/N326S/N75E/Q271E/R371I): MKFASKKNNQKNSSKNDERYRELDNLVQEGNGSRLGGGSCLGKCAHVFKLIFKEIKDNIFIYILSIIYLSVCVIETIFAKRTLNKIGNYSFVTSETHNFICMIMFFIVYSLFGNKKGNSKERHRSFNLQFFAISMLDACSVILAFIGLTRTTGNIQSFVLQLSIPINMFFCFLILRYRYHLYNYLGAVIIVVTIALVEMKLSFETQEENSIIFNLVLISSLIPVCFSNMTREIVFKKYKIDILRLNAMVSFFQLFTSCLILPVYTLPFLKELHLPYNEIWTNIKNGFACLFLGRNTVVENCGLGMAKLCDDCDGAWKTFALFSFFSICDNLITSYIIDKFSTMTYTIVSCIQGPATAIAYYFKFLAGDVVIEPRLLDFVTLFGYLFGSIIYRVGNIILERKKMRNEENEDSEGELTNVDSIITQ
structure (smiles),measurement,setting,value
N[C@@H](CCC(=O)O)C(=O)O [L-glutamic acid],inhibition at 500 µM,PfCRT^Dd2 [1]; [11],96 ± 4.7%
same,inhibition at 1000 µM,PfCRT^Dd2 [1]; [11],94 ± 4.2%
same,inhibition at 2000 µM,PfCRT^Dd2 [1]; [11],94 ± 2.9%
same,inhibition at 1000 µM,PfCRT^Dd2 [1]; [12],96 ± 2.5%
same,inhibition at 2000 µM,PfCRT^Dd2 [1]; [12],96 ± 3.3%
same,inhibition at 500 µM,PfCRT^Dd2 [1]; [13],98 ± 2.7%
same,inhibition at 1000 µM,PfCRT^Dd2 [1]; [13],96 ± 2.5%
same,inhibition at 2000 µM,PfCRT^Dd2 [1]; [13],96 ± 3.3%
same,inhibition at 500 µM,PfCRT^Dd2 [1]; [14],96 ± 4.7%
same,inhibition at 1000 µM,PfCRT^Dd2 [1]; [14],94 ± 4.2%
same,inhibition at 2000 µM,PfCRT^Dd2 [1]; [14],94 ± 2.9%
same,inhibition at 500 µM,PfCRT^Ecu1110 [2]; [15],92 ± 4.5%
same,inhibition at 1000 µM,PfCRT^Ecu1110 [2]; [15],93 ± 5.1%
same,inhibition at 500 µM,PfCRT^Ecu1110 [2]; [16],31 ± 1.5%
same,inhibition at 1000 µM,PfCRT^Ecu1110 [2]; [16],31 ± 2%
same,inhibition at 2000 µM,PfCRT^Ecu1110 [2]; [16],32 ± 1.9%
same,inhibition at 500 µM,PfCRT^Ecu1110 [2]; [17],94 ± 3.5%
same,inhibition at 1000 µM,PfCRT^Ecu1110 [2]; [17],96 ± 2.4%
same,inhibition at 2000 µM,PfCRT^Ecu1110 [2]; [17],99 ± 4.6%
same,inhibition at 500 µM,PfCRT^Ecu1110 [2]; [18],28 ± 0.8%
same,inhibition at 1000 µM,PfCRT^Ecu1110 [2]; [18],28 ± 0.6%
same,inhibition at 2000 µM,PfCRT^Ecu1110 [2]; [18],29 ± 0.4%
same,Tested as potential co-substrate but not required for influx of VF-6 via PfCRT into the oocyte,PfCRT [3],X
same,inhibition at 500 µM,PfCRT^3D7 [4]; [19],100 ± 3.8%
same,inhibition at 1000 µM,PfCRT^3D7 [4]; [19],101 ± 5.2%
same,inhibition at 2000 µM,PfCRT^3D7 [4]; [19],98 ± 5.7%
same,inhibition at 500 µM,PfCRT^3D7 [4]; [20],2.2 ± 0.01%
same,inhibition at 1000 µM,PfCRT^3D7 [4]; [20],2.8 ± 0.03%
same,inhibition at 2000 µM,PfCRT^3D7 [4]; [20],3.2 ± 0.08%
same,inhibition at 500 µM,non-expressing oocytes [5]; [21],2.5 ± 0.05%
same,inhibition at 1000 µM,non-expressing oocytes [5]; [21],2.7 ± 0.07%
same,inhibition at 2000 µM,non-expressing oocytes [5]; [21],3.8 ± 0.07%
same,inhibition at 500 µM,non-expressing oocytes [5]; [22],98 ± 4.7%
same,inhibition at 1000 µM,non-expressing oocytes [5]; [22],98 ± 3.7%
same,inhibition at 2000 µM,non-expressing oocytes [5]; [22],98 ± 5.2%
same,activity at 5000 µM,"PfCRT^Dd2 [6]; pH 5.5, read-out: PfCRT-mediated [3H]CQ transport, trans-stimulation (% PfCRTDd2 control), [test solute]i = 5 mM (intracellular), PfCRTDd2 oocytes, normalised to oocyte type control",99 ± 3.5%
same,activity at 5000 µM,"PfCRT^Dd2 [6]; pH 5.5, read-out: Uptake of [3H]CQ (% PfCRTDd2 control), trans-stimulation, PfCRTDd2, total [3H]CQ transport, [test solute]i = 5 mM (intracellular), mean ± SEM, SEM",101 ± 2.2%
same,activity at 5000 µM,"PfCRT^Dd2 [6]; pH 5.5, read-out: Uptake of [3H]CQ (% PfCRTDd2 control), trans-stimulation, PfCRTDd2 oocytes, [test solute]i = 5 mM, total [3H]CQ transport, normalised to the oocyte type control",101 ± 2.2%
same,activity at 45000 µM,"PfCRT^Dd2 [6]; pH 5.5, read-out: Uptake of [3H]CQ (% PfCRTDd2 control), trans-stimulation, PfCRTDd2 oocytes, total [3H]CQ transport, normalised to the oocyte type control",96 ± 2.8%
same,activity at 5000 µM,"PfCRT^Dd2 [6]; pH 5.5, read-out: [3H]CQ transport (% PfCRTDd2 control), trans-stimulation, PfCRTDd2, trans-stimulation, [test solute]i = 5 mM (injected), PfCRT-mediated component (background subtracted), mean ± SEM, SEM",99 ± 3.5%
same,activity at 45000 µM,"PfCRT^Dd2 [6]; pH 5.5, read-out: [3H]CQ transport (% PfCRTDd2 control), trans-stimulation, PfCRTDd2, trans-stimulation, PfCRT-mediated component (background subtracted), mean ± SEM, SEM",94 ± 4.2%
same,activity at 5000 µM,"PfCRT^Ecu1110 [7]; pH 5.5, read-out: PfCRT-mediated [3H]CQ transport, trans-stimulation (% PfCRTEcu1110 control), [test solute]i = 5 mM (intracellular), PfCRTEcu1110 oocytes, normalised to oocyte type control",97 ± 2.4%
same,activity at 5000 µM,"PfCRT^Ecu1110 [7]; pH 5.5, read-out: Uptake of [3H]CQ (% PfCRTEcu1110 control), trans-stimulation, PfCRTEcu1110 oocytes, [test solute]i = 5 mM, total [3H]CQ transport, normalised to the oocyte type control",99 ± 3.6%
same,activity at 45000 µM,"PfCRT^Ecu1110 [7]; pH 5.5, read-out: Uptake of [3H]CQ (% PfCRTEcu1110 control), trans-stimulation, PfCRTEcu1110 oocytes, [test solute]i = 45 mM (30 mM for some solutes due to solubility), total [3H]CQ transport, normalised to the oocyte type control",100 ± 3.7%
same,activity at 5000 µM,"PfCRT^Ecu1110 [7]; read-out: Uptake of [3H]CQ (% PfCRTDd2 control), trans-stimulation, PfCRTEcu1110, total [3H]CQ transport, [test solute]i = 5 mM (intracellular), mean ± SEM, SEM",35 ± 1.5%
same,activity at 45000 µM,"PfCRT^Ecu1110 [7]; read-out: Uptake of [3H]CQ (% PfCRTDd2 control), trans-stimulation, PfCRTEcu1110, total [3H]CQ transport, [test solute]i = 45 mM (intracellular; 30 mM for some solutes due to solubility), mean ± SEM, SEM",36 ± 2.1%
same,activity at 5000 µM,"PfCRT^3D7 [8]; PfCRT3D7 oocytes, [test solute]i = 5 mM, total [3H]CQ transport, normalised to the oocyte type control, read-out: Uptake of [3H]CQ (% PfCRT3D7 control), trans-stimulation",101 ± 2.6%
same,"[3H]CQ transport (% PfCRT3D7 control), trans-stimulation, PfCRT3D7",PfCRT^3D7 [8]; SEM,0.4 ± 0.02 % PfCRT3D7 control
same,activity at 5000 µM,"PfCRT^3D7 [8]; [test solute]i = 5 mM (intracellular), PfCRT3D7 oocytes, normalised to oocyte type control, read-out: PfCRT-mediated [3H]CQ transport, trans-stimulation (% PfCRT3D7 control)",99 ± 3.9%
same,activity at 45000 µM,"PfCRT^3D7 [8]; SEM, read-out: Uptake of [3H]CQ (% PfCRTDd2 control), trans-stimulation, PfCRT3D7",3.3 ± 0.02%
same,activity at 45000 µM,"PfCRT^3D7 [8]; read-out: PfCRT-mediated [3H]CQ transport, trans-stimulation (% PfCRT3D7 control)",97 ± 1.8%
same,activity at 45000 µM,"PfCRT^3D7 [8]; read-out: Uptake of [3H]CQ (% PfCRT3D7 control), trans-stimulation",99 ± 2.6%
same,activity at 5000 µM,"PfCRT^3D7 [8]; total [3H]CQ transport, [test solute]i = 5 mM (intracellular), mean ± SEM, SEM, read-out: Uptake of [3H]CQ (% PfCRTDd2 control), trans-stimulation, PfCRT3D7",3.4 ± 0.02%
same,activity at 5000 µM,PfNT1,2.7 ± 0.06%
same,"Uptake of [3H]CQ (% non-expressing oocyte control), trans-stimulation",non-expressing oocytes [9]; [test solute]i = 5 mM,99 ± 2.1 % non-expressing oocyte control
same,"Uptake of [3H]CQ (% non-expressing oocyte control), trans-stimulation",non-expressing oocytes [9]; [test solute]i = 45 mM (30 mM for some solutes due to solubility),99 ± 3.3 % non-expressing oocyte control
same,"Uptake of [3H]CQ (% PfCRTDd2 control), trans-stimulation, non-expressing oocytes",non-expressing oocytes [9]; [test solute]i = 5 mM (intracellular),3.1 ± 0.08 % PfCRTDd2 control
same,"Uptake of [3H]CQ (% PfCRTDd2 control), trans-stimulation, non-expressing oocytes",non-expressing oocytes [9]; [test solute]i = 45 mM (intracellular; 30 mM for some solutes due to solubility),2.9 ± 0.05 % PfCRTDd2 control
same,Tested as potential co-substrate but not required for influx of VF-6 via PfCRT into the oocyte,PfCRT [10],X
